Where a name gives a salt, the structure may show the parent alone.
melting point	Structure (SMILES)
267 to 269 °C	CCc1nc(-c2ccc(F)cc2)[nH]c1-c1cscn1 (as salt: HCl) [Preparation example 52]
251 to 255 °C	COCc1nc(-c2ccc(C)nc2)[nH]c1-c1cccnc1 (as salt: HCl) [Preparation example 127]
200 to 203 °C (dec.)	CCc1nc(-c2ccc(F)cc2)[nH]c1-c1ccccc1OC (as salt: HCl) [Preparation example 84]
215 to 217 °C	CCCc1nc(-c2ccsc2)[nH]c1-c1ccccc1 (as salt: HCl) [Preparation example 33]
205 to 207 °C	CCc1nc(-c2csc(Cl)c2)[nH]c1-c1cccnc1 (as salt: HCl) [Preparation example 55]
224 to 226 °C	CCCc1nc(-c2ccc(F)cc2)[nH]c1-c1ccccc1 (as salt: HCl) [Preparation example 88]
178 to 180 °C	CCCc1nc(-c2ccc(F)cc2)[nH]c1Br (as salt: HCl) [Preparation example 79]
174 to 176 °C	CCCc1nc(-c2ccc(F)cc2)[nH]c1-c1ccc(SC)cc1 (as salt: HCl) [Preparation example 89]
190 to 192 °C	CCc1nc(-c2ccc(F)cc2)[nH]c1-c1ncccn1 (as salt: HCl) [Preparation example 50]
201 to 202 °C	O=CCCNc1[nH]c(-c2ccc(F)cc2)nc1-c1ccccc1 [Preparation example 111, 5-formylethylamino-2-(4-fluorophenyl)-4-phenylimidazole]
287 to 289 °C	CCc1nc(-c2ccc(F)cc2)[nH]c1-c1cncnc1 (as salt: HCl) [Preparation example 85]
171 to 173 °C	Fc1ccc(-c2nc(C3CCCCC3)c(-c3ccsc3)[nH]2)cc1 [Preparation example 45]

The remaining lines, values behind:

Structure (SMILES)	melting point
CCCc1nc(-c2cccc(F)c2)[nH]c1-c1ccccc1 (as salt: HCl) [Preparation example 30]	192 to 193 °C
CCCc1nc(-c2ccc([N+](=O)[O-])cc2)[nH]c1-c1cccs1 (as salt: HCl) [Preparation example 9]	278 to 281 °C
CCOC(=O)Cc1nc(-c2ccc(F)cc2)oc1-c1cc(C)cs1 [Preparation Example 163]	138 to 139 °C
CCCc1nc(C2CCC(=O)N2)[nH]c1-c1cccs1 (stereo not drawn) (as salt: HCl) [Preparation example 4]	234 to 237 °C
CCOC(=O)Cc1nc(-c2ccc(F)cc2)oc1-c1ccccc1F [Preparation Example 161]	88 to 89 °C
CCc1nc(-c2ccc(C)nc2)[nH]c1-c1ccccc1 (as salt: HCl) [Preparation example 28]	248 to 251 °C
CCCc1nc(-c2cncc(C)c2)[nH]c1-c1cccs1 (as salt: HCl) [Preparation example 7]	183 to 185 °C
CCOC(=O)Cc1nc(-c2ccc(N(C)C)cc2)oc1-c1ccc(Cl)s1 [Preparation Example 384]	118 to 119 °C
CCOC(=O)Cc1nc(-c2ccc(OC)c(C)c2)oc1-c1ccsc1 [Preparation Example 410]	84 to 86 °C
CCOC(=O)Cc1nc(-c2ccc(COC(C)=O)cc2)oc1-c1ccc(Cl)s1 [Preparation Example 426]	112 to 113 °C
CCc1nc(-c2cccs2)[nH]c1-c1cccnc1 (as salt: HCl) [Preparation example 20]	215 to 217 °C
CCc1nc(-c2ccccc2C(N)=O)[nH]c1-c1cccnc1 (as salt: HCl) [Preparation example 18]	250 to 253 °C
CCOC(=O)Cc1nc(-c2ccc3ncccc3c2)oc1-c1ccsc1 [Preparation Example 411]	130 to 133 °C
O=C(O)Cc1nc(-c2ccc(F)cc2)oc1-c1cccs1 [Preparation Example 189]	208 to 209 °C
CCc1nc(-c2cccc(Cl)c2)[nH]c1-c1cccnc1 (as salt: HCl) [Preparation example 13]	223 to 224 °C

Source: patent US7759373B2, “Large conductance calcium-activated K channel opener” (Mitsubishi Tanabe Pharma Corporation, priority 2001, dated 2010)
